Assay results published in patent US8247378B2, “Homing peptide for tumor vasculature” (The Chinese University of Hong Kong, priority 2009, dated 2012).
Where no end group is shown, it is not given here. The star is where a group is joined. FITC = O=C1OC2(c3ccc(O)cc3Oc3cc(O)ccc32)c2ccc(NC(=S)*)cc21

Experiments:
colon 26 cells = test: In vitro cell viability assay (MTT assay), colon 26; type: cell-based, murine; conditions: colon 26, 6 h, increasing concentrations
Procedure: (§1) Cell lines and cell culture: The murine colorectal cancer cell colon 26, human colon cancer cell SW1116 were cultured at 37° C. in a humidified atmosphere containing 5% CO2, in RPMI-1640 medium supplemented with 2 g/L sodium bicarbonate, 100 units/ml penicillin, […] streptomycin and 10% FBS.
(§2) In vitro cell viability assay (MTT assay): Cell viability was assessed by MTT assay, which depends on the ability of viable cells to reduce the MTT to a colored formazan product. In brief, cells (10^4 cells per well) were seeded in 96-well microculture plates overnight for attachment, and then incubated with increasing concentrations of the peptides CTPSPFSHC-GG-D(KLAKLAK)2 or CTPSPFSHC (SEQ ID NO:1) or D(KLAKLAK)2 in 100 μl of 1% FBS in DMEM for 6˜48 hours at 37° C. In the next step, MTT was added to each well, and the cells were further incubated for 3 h. The colored formazan product was determined photometrically at 570 nm in a multi-well plate reader (Bio-Rad).
(§3) TCP-1 conjugate and induction of apoptosis in colorectal cancer cells: Next, in order to examine whether the TCP-1 peptide could serve as a drug carrier into cancer cells, we synthesized a chimeric peptide of TCP-1 peptide to a proapoptotic peptide D(KLAKLAK)2, which disrupts mitochondrial membranes upon receptor-mediated cell internalization and causes programmed cell death. Increasing concentrations of TCP-1 conjugate (TCP-GG-D(KLAKLAK)2), equimolar TCP-1 or D(KLAKLAK)2 were incubated with colon 26 or SW1116 cells at 37° C. Cell viability was assessed after 6 h (colon 26) and 48 h (SW1116). The effect of TCP-1 conjugate on the cell viability was determined and compared respectively with TCP-1 or D(KLAKLAK)2 alone.

SW1116 cells = test: In vitro cell viability assay (MTT assay), SW1116; type: cell-based, human; conditions: SW1116, 48 h, increasing concentrations
Procedure: as §1, §2, §3

[1] = tested on: orthotopic colorectal tumors; test: Organ level imaging of tumor tissues with FITC-labeled peptide; type: in vivo, mice
Procedure: Imaging of tissue was done under a blue light, by using the imaging system of KODAK Image Station 2000MM.
To determine whether FITC-labeled TCP-1 accumulated into the tumor tissues can be visualized at the organ level, tumor-bearing mice were injected intravenously with FITC-labeled TCP-1, control peptide or PBS alone. More specifically, tumor-bearing mice were i.v. injected with 500 nmol fluorescein-conjugated peptide (in 500 μl PBS). The peptide was allowed to circulate for 20 hour. The mice were killed, and various tissues were excised and examined for fluorescence. Organ imaging was done under a blue light, by using the imaging system of KODAK Image Station 2000MM.
Further, FITC-labeled TCP-1 could specifically accumulate in the tumor tissues with various volumes (diameter 2 mm, 6 mm, 8 mm tested) (FIG. 5B).

[2] = tested on: orthotopic colorectal cancer tissue (colon 26); test: In vivo phage targeting assay, orthotopic colorectal cancer model; design: species or system BALB/c mice; conditions: synthetic peptide (300 μg) co-injected with CTPSPFSHC-phage
Procedure: The mice were maintained at Chinese University of Hong Kong Animal Facility.
The model was performed as previously published with some modifications. (See Takahashi T, Morotomi M, and Nomoto K (2004). A novel mouse model of rectal cancer established by orthotopic implantation of colon cancer cells. Cancer Sci 95, 514-519). Briefly, all mice were given the tap water containing 3% dextran sulfate sodium (DSS) for 8 days to induce colitis. Mice were fasted for 18 h (DSS) after colitis induction, and then anesthetized with sodium pentobarbital. Colon 26 cells (3×10^6 cells/40 μl/mouse) were infused intrarectally with a micropipette inserted 2 cm into the anus of the mice. The anus was compressed with a noncrushing microclamp immediately after instillation of tumor cells for 30 min to prevent leakage. Successful models were used for in vivo selection at 2 weeks after implantation of tumor cells.
The assay was as described in Zhang L, Giraudo E, Hoffman J A, Hanahan D, and Ruoslahti E (2006). Lymphatic zip codes in premalignant lesions and tumors. Cancer Res 66, 5696-5706. Briefly, mice bearing tumors were anesthetized and i.v. injected with 1×10^9 pfu CTPSPFSHC-phage or control phage. After 8 minutes, mice were perfused through the heart with DMEM containing 1% BSA. The tumor and control organs were removed from each mouse and the phage was rescued and titered. […]

[3] = tested on: blood vessels (CD31) in orthotopic colorectal tumor tissues; test: Biodistribution of FITC-conjugated peptide, colorectal cancer model; type: in vivo, mouse; conditions: 300 nmol i.v., 1 hour circulation
Procedure: (§4) To further confirm whether the selective phage homing was due to the CTPSPFSHC (SEQ ID NO:1) peptide (TCP-1), chemically synthetic FITC-conjugated TCP-1 or control peptide was intravenously injected into tumor-bearing mice to study the location of the peptide. Biodistribution of fluorescein-conjugated peptides was examined after i.v. injection of the peptide (300 nmol in 300 μl PBS) into the tail vein of a tumor-bearing mouse. The peptide was allowed to circulate for 1 hour.
Tumor and control tissues were collected and frozen sections prepared as described above in Example 1. Blood vessels were stained by CD31 antibody (secondary antibody conjugated Alexa-568). […] FITC-labeled control peptide was not found in the tumor tissues (FIG. 4A). Taken together with the immunolocalization analyses of TCP-1 phage homing, the peptide localization data confirmed that TCP-1 peptide homed specifically to blood vessels in tumor tissues but not to the vasculature of control organs.

[4] = tested on: blood vessels of human colon and rectal adenocarcinoma tissues; test: Peptide binding to tissue sections from human cancer; conditions: for binding to blood vessels of cancer tissues / binding to vasculature of normal colon tissues: 10 μmol/L, 1 hour, 37° C., human biopsy sections
Procedure: To establish the ability of TCP-1 to selectively bind to the vasculature of human tumors, human biopsy samples were studied. They were double stained and images photographically overlayed to determine tissue specificity. More specifically, multiple human biopsy samples containing both colon adenocarcinoma and normal colonic tissue were snap frozen, embedded in OCT, cut into 5 μm sections, and then arrayed on slides. The slides were incubated with 10 μmol/L FITC-CTPSPFSHC (SEQ ID NO:2) or FITC-CVQTAQLLC (SEQ ID NO:3) for 1 hour at 37° C., washed three times with PBS, fixed with 4% paraformaldehyde. Blood vessels were stained with mouse anti-human CD31 monoclonal antibody and Alexa Fluor 568 goat anti-mouse IgG as above described.
The positive binding was usually found in tumor tissues at more advanced stages (in terms of lymphovascular permeation, T staging, N staging, and overall Dukes' staging).

[5] = tested on: blood vessels (CD31) in gastric cancer tissues; test: Biodistribution of FITC-conjugated peptide, gastric cancer model; type: in vivo, mouse; conditions: 300 nmol i.v., 1 hour circulation
Procedure: as §4, with “gastric cancer-bearing” for “tumor-bearing”
Tumor and control tissues were collected and frozen sections prepared as described above. Blood vessels were stained by CD31 antibody (secondary antibody conjugated Alexa-568). […] FITC-labeled control peptide was not found in the tumor tissues (FIG. 10 bottom). Taken together with the immunolocalization analyses of TCP-1 phage homing, the peptide localization data confirmed that TCP-1 peptide also homed specifically to blood vessels in gastric cancer tissues but not to the vasculature of control organs.

[6] = tested on: tumor vasculature of orthotopic colorectal cancer; test: Therapeutic treatment with proapoptotic conjugate, cleaved caspase 3/CD31 staining; type: in vivo
Text: We conjugated TCP-1 with a pro-apoptotic peptide, D(KLAKLAK)2, which disrupts mitochondrial membranes upon receptor-mediated cell internalization and causes programmed cell death. This approach has been successfully employed for targeted apoptosis induction in angiogenic endothelial cells, tumor lymphatics and the vasculature of white fat. See: Zhang L, Giraudo E, Hoffman J A, Hanahan D, and Ruoslahti E (2006). Lymphatic zip codes in premalignant lesions and tumors. Cancer Res 66, 5696-5706; Kolonin M G, Saha P K, Chan L, Pasqualini R, and Arap W (2004). Reversal of obesity by targeted ablation of adipose tissue. Nat Med 10, 625-632; and, Ellerby H M, Arap W, Ellerby L M, Kain R, Andrusiak R, Rio G D, Krajewski S, Lombardo C R, Rao R, Ruoslahti E, et al. (1999). Anti-cancer activity of targeted pro-apoptotic peptides. Nat Med 5, 1032-1038. All-D enantiomer D(KLAKLAK)2 was used to avoid degradation by proteases. Ellerby H M, et al., (1999) Nat Med 5, 1032-1038.
Mice bearing orthotopic colorectal cancer were randomized into three groups. The therapeutic group was i.v. injected 260 μg/dose/mouse of the conjugated CTPSPFSHC-GG-D(KLAKLAK)2 [CDK]. Control groups received an equimolar mixture of CTPSPFSHC (SEQ ID NO:1) and D(KLAKLAK)2 [DKK], or PBS alone once every three days. Treatment was terminated 7 days after the first peptide administration as described in Kolonin M G, Saha P K, Chan L, Pasqualini R, and Arap W (2004). Reversal of obesity by targeted ablation of adipose tissue. Nat Med 10, 625-632 and Giordano R J, Landenranta J, Zhen L, Chukwueke U, Petrache I, Langley R R, Fidler I J, Pasqualini R, Tuder R M, and Arap W (2008). Targeted induction of lung endothelial cell apoptosis causes emphysema-like changes in the mouse. J Biol Chem 283, 29447-29460.
Tumors and control organs were dissected at the termination of the experiment. Histologic analysis was done to evaluate the density of tumor blood vessels. Apoptotic vascular endothelial cells were visualized by double staining with anticleaved caspase-3 and CD31 antibodies. […]

[7] = 500 nmol i.v., 20 h after injection

| Substance | effect on cell viability (colon 26 cells) | effect on cell viability (SW1116 cells) | peptide fluorescence in vasculature of tumor tissue (histological analysis) ([1]; 20 h after injection) | peptide localization in tumor tissues (CD31 co-staining) [3] | fluorescent signal in other control tissues [1, 7] | fluorescent signal in tumors, whole tissue under blue light [1, 7] | binding to blood vessels of cancer tissues [4] | binding to vasculature of normal colon tissues [4] | peptide localization in tumor tissues (CD31 co-staining) [5] | also measured |
| --- | --- | --- | --- | --- | --- | --- | --- | --- | --- | --- |
| D(KLAKLAK)2 [reference compound] | much weaker toxic effects | much weaker toxic effects |  |  |  |  |  |  |  |  |
| CTPSPFSHC (also: cyclic) [TCP-1] | no significant effect on cell viability | no significant effect on cell viability | remained in the vasculature of tumor tissue |  |  |  |  |  |  | peptide fluorescence in control organs (histological analysis) ([1]; 20 h after injection): not in the control organs; effect on phage number recovered from control organs (brain, colon) [2]: not much affected; reduction of phage number recovered from the tumor tissue [2]: 95% |
| FITC-CTPSPFSHC ({FITC}-CTPSPFSHC; cysteine pairing not given here) [FITC-labeled TCP-1, FITC-conjugated TCP-1 peptide for homing validation] |  |  |  | colocalised with CD31 | no specific fluorescent signal | strong fluorescent signal | bound | not to vasculature of normal colon tissues | colocalised with CD31 | peptide localization in control organs [3]: not detectable; smallest tumor size detected ([1]; 500 nmol i.v., 20 hour circulation): 2 mm; colon adenocarcinomas recognized by the peptide ([4]; positive/total patients): 5/10; rectal adenocarcinomas recognized by the peptide ([4]; positive/total patients): 6/11; peptide localization in control organs [5]: not detectable |
| FITC-CVQTAQLLC ({FITC}-CVQTAQLLC; cysteine pairing not given here) [FITC-labeled control peptide, FITC-conjugated negative control peptide, reference compound] |  |  | not detectable | not found | no specific fluorescent signal | no fluorescent signal | did not interact | did not interact | not found |  |
| CTPSPFSHC-GG-D(KLAKLAK)2 [TCP-GG-D(KLAKLAK)2] | inhibited the proliferation of colon 26 and SW1116 cells more efficiently than D(KLAKLAK)2 alone | inhibited the proliferation of colon 26 and SW1116 cells more efficiently than D(KLAKLAK)2 alone |  |  |  |  |  |  |  | vasculature endothelial cells expressing active caspase 3 in tumors ([6]; 260 μg/dose/mouse i.v. once every three days, 7 days, vs PBS or uncoupled mixture): obvious increase; quantification of active caspase 3: apoptotic cells in the tumor vasculature ([6]; 260 μg/dose/mouse i.v., compared to the other two groups): remarkable increased number of apoptotic cells; apoptotic vasculature in normal colon tissues and brain tissues ([6]; mouse, in vivo): hardly active caspase-3 positive cells |
